{"source": "patent US12496301B2", "about": "“Use of androgen receptor degrader for the treatment of spinal and bulbar muscular atrophy” (Arvinas Operations, Inc., priority 2023, dated 2025)", "key": {"polyQ-AR [1]": {"tested_on": "polyQ-AR", "assay": "Myotube high content imaging of polyQ-AR in myotubes that overexpress polyQ-AR", "type": "cell-based, human", "procedure": "Cells were maintained in skeletal growth medium (PromoCell #23160). Immortalized myoblasts harboring inducible human androgen receptor with 56 CAG repeats (hAR56Q) were constructed by lentiviral transduction with CMV-rtTA and TetO-AR56Q-T2A-Puromycin (Mamchaoui, K. et al. Skeletal Muscle 1, 34 (2011)).\nOn day 0, immortalized myoblasts with inducible polyQ-AR (described above in “Cell lines”) cells were seeded onto Geltrex-coated 96-well plates at a density of 4×10^6 cells per plate in myoblast basal media (Promocell C-23060) supplemented with 1% penicillin-streptomycin (Pen Strep) antibiotics. The plates were then incubated overnight at 37° C. in a 5% CO2 environment. Upon reaching 100% confluency (Day 1), the myoblast media were aspirated and replaced with myotube differentiation media (Promocell C-23061). The cells were cultured in this differentiation media for 6 days, with media changes occurring every three days.\nOn the sixth day of differentiation, the compounds and doxycycline ([…]) diluted in 100% dimethyl sulfoxide (DMSO) were added to the myotubes. The plate was then incubated for 24 hours at 37° C. in an incubator. On the following day (Day 7), the culture media was removed from the plates and replaced with 50 μL of 4% paraformaldehyde (PFA) prepared in 1× phosphate-buffered saline (PBS). The plates were incubated with PFA for 15 minutes, followed by three washes with PBS. Subsequently, the myotubes were permeabilized for 15 minutes using 0.5% Triton X-100 in 1×PBS and then blocked with 5% Bovine Serum Albumin (BSA) (Thermofisher, #37520) for one hour at room temperature. After blocking, the plates were incubated overnight at 4° C. with primary antibodies: a 1:100 diluted Androgen Receptor antibody (D6F11 Cell Signaling 5135S) and a 1:200 diluted Desmin antibody (Thermofisher, MA1-22150) in PBS containing 0.1% BSA. […] Degradation was quantified by determining the average intensity of AR within separate nuclear and cytoplasmic compartments in Desmin positive area (myotubes)."}, "AR": {"target": "T1, AR (Homo sapiens, UniProt P10275)", "T1 sequence (P10275 1-920 Q868H)": "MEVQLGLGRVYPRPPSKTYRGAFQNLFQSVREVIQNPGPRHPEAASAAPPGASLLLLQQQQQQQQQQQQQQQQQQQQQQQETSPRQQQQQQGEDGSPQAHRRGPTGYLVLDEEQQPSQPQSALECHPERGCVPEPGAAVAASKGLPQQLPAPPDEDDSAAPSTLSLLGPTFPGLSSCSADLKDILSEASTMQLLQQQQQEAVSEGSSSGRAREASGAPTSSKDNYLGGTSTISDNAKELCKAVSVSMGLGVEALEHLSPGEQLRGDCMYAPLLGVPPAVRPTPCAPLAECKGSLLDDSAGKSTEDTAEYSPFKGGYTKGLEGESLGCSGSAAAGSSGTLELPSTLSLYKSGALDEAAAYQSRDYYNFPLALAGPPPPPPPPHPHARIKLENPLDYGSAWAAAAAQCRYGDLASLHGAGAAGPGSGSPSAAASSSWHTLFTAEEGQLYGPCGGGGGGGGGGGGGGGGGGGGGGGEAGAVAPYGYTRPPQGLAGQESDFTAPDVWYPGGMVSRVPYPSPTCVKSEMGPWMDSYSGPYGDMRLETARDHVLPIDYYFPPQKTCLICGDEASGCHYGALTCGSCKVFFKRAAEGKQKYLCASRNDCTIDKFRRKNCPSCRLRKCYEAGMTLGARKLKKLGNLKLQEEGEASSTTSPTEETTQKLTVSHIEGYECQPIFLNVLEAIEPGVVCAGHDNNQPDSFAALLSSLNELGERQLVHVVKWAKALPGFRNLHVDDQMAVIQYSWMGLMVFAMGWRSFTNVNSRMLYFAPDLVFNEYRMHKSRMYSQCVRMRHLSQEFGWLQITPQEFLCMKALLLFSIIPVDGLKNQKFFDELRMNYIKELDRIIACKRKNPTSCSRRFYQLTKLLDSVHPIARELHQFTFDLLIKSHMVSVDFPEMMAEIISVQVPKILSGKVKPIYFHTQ", "assay": "AR agonism assay in MDA-MB-453 ARE-luc reporter cells in the presence of pomalidomide", "type": "cell-based", "settings": "MDA-MB-453 AR luciferase reporter, with pomalidomide", "procedure": "The AR Responsive Luciferase Reporter MDA-MB-453 Stable Cell Line (MDA-MB-453 ARE-luc) was utilized for the AR agonism assay. These cells constitutively express the firefly luciferase reporter gene under the control of the androgen receptor response element. MDA-MB-453 ARE-luc cells were cultured in RPMI media (Thermo Fisher Scientific) supplemented with 5% charcoal-Dextran treated fetal bovine serum and were maintained at 37° C. in a 5% CO2 incubator. On day 0, the cells were seeded in 96-well plates at a density of 5×10^6 cells per plate. To prevent serum androgen interference during the AR agonism assay, the cells were cultured in phenol-free RPMI media without FBS. On day 1, the cells were treated with the compounds to establish concentration-response curves (CRCs). The compounds were administered at a top concentration of 300 nM with half-log dilutions. The synthetic AR agonist R1881 served as a positive control, with a top concentration of 30 nM and half-log dilutions. E3 ligase inhibitor pomalidomide was included in each well alongside the compounds at a concentration tenfold higher than that of the treated compounds. On day 2, the culture medium was removed, and luminescence data were obtained using the Bright Glo Assay (Promega, Catalog No. E2620) with 50 μL of Bright Glo buffer per well. Luminescence signals were recorded using a plate reader, and the agonism effect was calculated as a percentage using the formula: Agonism effect (%)=(Luminescence signal of compound/Maximum signal of R1881 at 30 nM)*100."}, "hepatocyte": {"tested_on": "hepatocyte", "assay": "In vitro ADMET: hepatocyte toxicity", "type": "cell-based", "settings": "at 1 μM"}, "hERG": {"target": "hERG (Homo sapiens, UniProt Q12809)", "sequence (Q12809 whole entry)": "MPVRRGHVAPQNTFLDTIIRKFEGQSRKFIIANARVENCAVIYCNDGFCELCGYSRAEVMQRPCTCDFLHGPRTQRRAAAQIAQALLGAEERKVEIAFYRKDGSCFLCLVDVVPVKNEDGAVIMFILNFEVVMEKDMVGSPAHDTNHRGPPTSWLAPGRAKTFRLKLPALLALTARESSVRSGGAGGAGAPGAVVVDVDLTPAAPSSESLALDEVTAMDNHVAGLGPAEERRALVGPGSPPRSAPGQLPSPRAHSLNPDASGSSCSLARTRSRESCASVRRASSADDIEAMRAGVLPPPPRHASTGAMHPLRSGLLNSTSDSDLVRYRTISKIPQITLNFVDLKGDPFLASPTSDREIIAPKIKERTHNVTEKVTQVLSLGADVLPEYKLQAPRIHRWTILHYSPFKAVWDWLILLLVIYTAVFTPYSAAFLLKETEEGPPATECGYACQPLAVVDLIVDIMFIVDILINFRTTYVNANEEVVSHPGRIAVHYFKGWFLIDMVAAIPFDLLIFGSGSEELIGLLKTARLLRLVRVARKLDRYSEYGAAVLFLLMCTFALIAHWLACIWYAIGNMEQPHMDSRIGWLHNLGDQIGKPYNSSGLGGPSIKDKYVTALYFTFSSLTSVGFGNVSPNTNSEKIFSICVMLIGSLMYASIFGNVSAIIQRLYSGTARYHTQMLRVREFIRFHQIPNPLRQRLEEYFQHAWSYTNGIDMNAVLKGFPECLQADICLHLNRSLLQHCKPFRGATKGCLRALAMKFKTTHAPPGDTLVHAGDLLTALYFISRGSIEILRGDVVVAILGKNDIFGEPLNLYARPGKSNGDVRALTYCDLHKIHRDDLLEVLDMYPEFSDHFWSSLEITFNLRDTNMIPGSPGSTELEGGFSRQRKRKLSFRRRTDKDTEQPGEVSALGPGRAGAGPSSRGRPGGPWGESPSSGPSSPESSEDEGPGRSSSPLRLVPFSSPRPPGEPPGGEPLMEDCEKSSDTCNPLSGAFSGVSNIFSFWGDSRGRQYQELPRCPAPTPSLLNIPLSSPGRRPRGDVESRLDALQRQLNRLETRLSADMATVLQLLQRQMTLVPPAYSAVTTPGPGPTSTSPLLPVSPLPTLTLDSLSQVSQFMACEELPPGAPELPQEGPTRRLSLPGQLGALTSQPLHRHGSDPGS", "assay": "In vitro ADMET: hERG inhibition"}, "[2]": {"assay": "Oral bioavailability in non-human primates", "type": "in vivo"}, "polyQ-AR [3]": {"tested_on": "polyQ-AR", "assay": "Global proteomics in SBMA hiPSC-myotubes: polyQ-AR and specificity", "type": "cell-based, human", "settings": "12 nM, SBMA hiPSC-myotubes", "from_the_text": "(§1) (FIG. 12A). […] (FIG. 12C)."}, "PDE6D": {"target": "T2, PDE6D (Homo sapiens, UniProt O43924)", "T2 construct": "endogenous in cells; host or cells: SBMA hiPSC-derived myotubes", "T2 sequence (O43924 whole entry)": "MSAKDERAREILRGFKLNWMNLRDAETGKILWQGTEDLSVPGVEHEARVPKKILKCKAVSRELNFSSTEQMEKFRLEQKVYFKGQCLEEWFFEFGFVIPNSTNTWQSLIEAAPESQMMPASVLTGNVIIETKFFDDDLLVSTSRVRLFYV", "assay": "Global proteomics / Western blot in SBMA hiPSC-myotubes: neosubstrate PDE6D", "type": "cell-based", "settings": "global proteomics, SBMA hiPSC-myotubes", "from_the_text": "as §1"}, "polyQ-AR [4]": {"tested_on": "polyQ-AR", "assay": "polyQ-AR degradation in SBMA patient hiPSC-derived myotubes, capillary immunoassay", "type": "cell-based, human", "settings": "concentration response", "procedure": "Lysates for hiPSC-derived myotubes were prepared in lysis buffer ([…], 50 mM sodium chloride, 1% NP-40, 1% SDS) supplemented with Halt Protease Inhibitor (78437 Thermo Fisher Scientific), Benzonase, and MgCl2 (1 mM final concentration). The lysates were cleared by centrifugation at 4° C. and supernatants were quantified using the BIO-RAD DC protein assay (5000112 BIO-RAD). The AR and protein levels were quantified by an automated capillary immunoassay experiment (ProteinSimple). The AR and Myosin Protein levels were quantified and normalized to total protein.\nControl and SBMA hiPSCs were differentiated into myotubes as previously described (Caron, L. et al. 2016, STEM CELLS Transl. Med. 5, 1145-1161) using the skeletal muscle differentiation kit (Amsbio). hiPSCs were dissociated to single cells using Accutase and plated on Geltrex-coated 10 cm culture plates at a density of 200,000 cells per plate with SBMA hiPSCs in skeletal muscle induction media (SKM01, AMSBIO). Media changes were performed every second day until cells were confluent (˜7 days). The resulting myogenic precursor cells were then dissociated to single cells using Accutase and replated on Matrigel-coated 24-well tissue culture plate with 500 μL of cells at 35,000 cells per mL in skeletal myoblast media (SKM02, AMSBIO). Half media changes were performed every second day until myoblasts reached confluence (˜7 days). The media was then switched to myotube medium (SKM03, ASMBIO). Media changes every second day until myotube formation was confirmed by microscopy. Myotubes were treated on day 20 of differentiation (6 days' worth of SKM03 media) with compounds diluted in DMSO for a final DMSO concentration of 0.01% in SKM03 media. The cells were lysed 24 hours later in Pierce RIPA buffer (Cat. No. 89900, ThermoFisher) supplemented with 1× Halt protease inhibitor cocktail (Cat. No. 87786, ThermoFisher), 1 mM MgCl2, and 1 μL Benzonase Nuclease. AR protein was measured by capillary electrophoresis. […]"}}, "note": "“Also recorded” adds a separate entry of the source.", "data": [{"compound": "Cc1cc(O[C@H]2C(C)(C)[C@H](NC(=O)c3cnc(N4CCC(CN(C(C)C)[C@H]5C[C@H](Oc6ccc7c(c6)C(=O)N(C6CCC(=O)NC6=O)C7=O)C5)CC4)nc3)C2(C)C)cc(C)c1C#N", "note": "(stereo partly shown) [Compound B]", "values": [{"measurement": "mean Dmax for polyQ-AR in myotube nuclei", "setting": "polyQ-AR [1]; 24 hours treatment, nuclear compartment", "result": "increase in nuclear polyQ-AR"}, {"measurement": "total polyQ-AR signal in myotubes", "setting": "polyQ-AR [1]; data not shown", "result": "reduced the total polyQ-AR signal"}, {"measurement": "agonism activity at Emax relative to R1881", "setting": "AR", "result": "> 40", "unit": "%"}, {"measurement": "EC50", "setting": "AR; read-out: EC50, AR agonist activity", "result": 37, "unit": "nM"}]}, {"compound": "CC1(C)[C@H](NC(=O)c2cnc(N3CCC(CN4CCN(c5cc6c(cc5F)C(=O)N(C5CCC(=O)NC5=O)C6=O)CC4)CC3)nc2)C(C)(C)[C@H]1Oc1ccc(C#N)c(Cl)c1", "note": "(stereo partly shown) [Compound C]", "values": [{"measurement": "hepatocyte toxicity", "setting": "hepatocyte", "result": 50, "unit": "%"}]}, {"compound": "CCN(CC1CCN(c2cnc(C(=O)N[C@H]3C(C)(C)[C@H](Oc4cc(C)c(C#N)c(C)c4)C3(C)C)cn2)CC1)[C@H]1C[C@H](Oc2ccc3c(c2)C(=O)N(C2CCC(=O)NC2=O)C3=O)C1", "note": "(stereo partly shown) [Compound D]", "values": [{"measurement": "hERG inhibition", "setting": "hERG", "result": "< 10", "unit": "µM"}]}, {"compound": "COc1cc(O[C@H]2CC[C@H](NC(=O)c3cnc(N4CCC(CN(C(C)C)[C@H]5C[C@H](Oc6ccc7c(c6)C(=O)N(C6CCC(=O)NC6=O)C7=O)C5)CC4)cn3)CC2)ccc1C#N", "note": "(stereo partly shown) [Compound E]", "values": [{"measurement": "oral bioavailability", "setting": "[2]", "result": "poor oral bioavailability"}]}, {"compound": "CC(C)N(CC1CCN(c2ncc(C(=O)N[C@H]3C(C)(C)[C@H](Oc4ccc(C#N)c(Cl)c4)C3(C)C)cn2)CC1)[C@H]1C[C@H](Oc2ccc3c(c2)C(=O)N(C2CCCN(C)C2=O)C3=O)C1", "note": "(stereo partly shown) [Compound F, reference compound]", "values": [{"measurement": "polyQ-AR degradation compared to control, global proteomics", "setting": "polyQ-AR [3]", "result": "does not induce degradation; also recorded: does not degrade AR"}, {"measurement": "PDE6D as neosubstrate", "setting": "PDE6D", "result": "not a neosubstrate"}, {"measurement": "polyQ-AR degradation in SBMA hiPSC-myotubes", "setting": "polyQ-AR [4]", "result": "did not induce polyQ-AR degradation"}]}]}
